This is an account of results in US10179790B2 (THOMAS HELLEDAYS STIFTELSE FOR MEDICINSK FORSKNING, priority 2014, dated 2019).

One test has as its target MTH1 (Homo sapiens, UniProt P36639). Put plainly: MTH1 enzymatic assay and IC50 value determination (malachite green, 96- and 384-well format). It is filed as biochemical. Conditions: hydrolysis of dGTP (100 μM), MTH1 6 nM, pyrophosphatase-coupled malachite green, 15 minutes at 22° C. An outline of the steps:
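MTH1 (6 nM) hydrolysed dGTP (100 μM) for 15 min at 22 °C in Tris-acetate buffer with Mg2+, DTT, Tween 20 and excess pyrophosphatase, 1% DMSO. Pi detected with malachite green at 630 nm. IC50 from nonlinear 4-parameter fit of 11–12-point dilution series.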

The subject of a further test is cancer cell. Put plainly: Cell viability assay (resazurin). In kind it is cell-based. Conditions: 72 h; 3 days with compound, resazurin fluorescence; cell line not named. An outline of the steps:
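Cells in DMEM GlutaMAX or line-appropriate medium are exposed to compound for 3 days at 37 °C, 5% CO2. Viability is read as resazurin fluorescence (Ex544/Em590) after 2 h incubation. In the 384-well format, cells are seeded onto 11 pre-dispensed concentrations (final DMSO <1%) and read after 3 h resazurin.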

Structures are written as SMILES.

As for `Cc1c(Cl)cccc1-c1cc(NCCCOc2ccc(C(N)=O)cn2)nc(N)n1` [Example 206, 6-(3-{[2-amino-6-(3-chloro-2-methylphenyl)pyrimidin-4-yl]amino}propoxy)pyridine-3-carboxamide], the IC50 at MTH1 is under 200 nM; in the test with cancer cell, under 500 nM.
Taken in the same sequence, the figures for `Cc1c(Cl)cccc1-c1cc(NCCc2ccc(S(=O)(=O)N3CCOCC3)cc2)nc(N)n1` [Example 207, 6-(3-chloro-2-methylphenyl)-N4-{2-[4-(morpholine-4-sulfonyl)phenyl]ethyl}pyrimidine-2,4-diamine] were under 200 nM and under 500 nM.
Taken in the same sequence, the figures for `COCCNS(=O)(=O)c1ccc(CCNc2cc(-c3cccc(Cl)c3C)nc(N)n2)cc1` [Example 208, 4-(2-{[2-amino-6-(3-chloro-2-methylphenyl)pyrimidin-4-yl]amino}ethyl)-N-(2-methoxyethyl)benzene-1-sulfonamide] were under 200 nM and under 500 nM.
Consider `Cc1c(Cl)cccc1-c1cc(NCCc2ccc(S(=O)(=O)NC3COC3)cc2)nc(N)n1` [Example 209, 4-(2-{[2-amino-6-(3-chloro-2-methylphenyl)pyrimidin-4-yl]amino}ethyl)-N-(oxetan-3-yl)benzene-1-sulfonamide], for which the IC50 against MTH1 was under 200 nM; in the test with cancer cell, under 500 nM.
Taken in the same sequence, the figures for `Cc1c(Cl)cccc1-c1cc(NCCc2ccc(S(=O)(=O)NC3CCOCC3)cc2)nc(N)n1` [Example 210, 4-(2-{[2-amino-6-(3-chloro-2-methylphenyl)pyrimidin-4-yl]amino}ethyl)-N-(oxan-4-yl)benzene-1-sulfonamide] were under 200 nM and under 500 nM.
Taken in the same sequence, the figures for `C#CCN(C)C(=O)c1ccc(CCNc2cc(-c3cccc(Cl)c3C)nc(N)n2)cc1` [Example 211, 4-(2-{[2-amino-6-(3-chloro-2-methylphenyl)pyrimidin-4-yl]amino}ethyl)-N-methyl-N-(prop-2-yn-1-yl)benzamide] were under 200 nM and under 500 nM.
The like results for `C#Cc1ccc(CCNc2cc(-c3cccc(Cl)c3C)nc(N)n2)cc1` [Example 212, 6-(3-chloro-2-methylphenyl)-N4-[2-(4-ethynylphenyl)ethyl]pyrimidine-2,4-diamine] were, in that order, under 200 nM and under 500 nM.
`Cc1c(Cl)cccc1-c1cc(NCCOc2ccc(S(N)(=O)=O)cn2)nc(N)n1` [Example 213, 6-(2-(2-amino-6-(3-chloro-2-methylphenyl)pyrimidin-4-ylamino)ethoxy)pyridine-3-sulfonamide]: the IC50 against MTH1 is under 200 nM; in the test on cancer cell it was under 500 nM.
Take `Cc1c(Cl)cccc1-c1cc(NCCOc2ccc(S(C)(=O)=O)cn2)nc(N)n1` [Example 214, 6-(3-Chloro-2-methylphenyl)-N4-(2-(5-(methylsulfonyl)pyridin-2-yloxy)ethyl)pyrimidine-2,4-diamine]: the IC50 on MTH1 was under 200 nM; in the test on cancer cell, under 500 nM.

As a reminder, the IC50 is the concentration that inhibits the measured activity by half.
